Measurements taken from patent US11981658B2, “Substituted aminopyridine compounds as EGFR inhibitors” (YUHAN CORPORATION, priority 2021, dated 2024).
Like-named read-outs stand apart in the source and are kept apart here.

Assays:
EGFR Del19/T790M/C797S = EGFR Del19/T790M/C797S (Homo sapiens, UniProt P00533, C797S/DEL746-750/T790M); assay: Biochemical EGFR kinase inhibition assay (Lance Ultra TR-FRET), triple mutant del19/T790M/C797S
Outline: (§1)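 Enzyme reactions lasted 1 hour at room temperature with test compounds between 0.003 and 10 μM, followed by 10 mM EDTA quench.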

EGFR L858R/T790M/C797S = EGFR L858R/T790M/C797S (Homo sapiens, UniProt P00533, C797S/L858R/T790M); assay: Biochemical EGFR kinase inhibition assay (Lance Ultra TR-FRET), triple mutant L858R/T790M/C797S
Outline: as §1

EGFR Del19/C797S = EGFR Del19/C797S (Homo sapiens, UniProt P00533, C797S/DEL746-750); assay: Biochemical EGFR kinase inhibition assay (Lance Ultra TR-FRET), double mutant del19/C797S
Outline: as §1

EGFR L858R/C797S = EGFR L858R/C797S (Homo sapiens, UniProt P00533, C797S/L858R); assay: Biochemical EGFR kinase inhibition assay (Lance Ultra TR-FRET), double mutant L858R/C797S
Outline: as §1

EGFR wildtype (WT) = EGFR wildtype (WT) (Homo sapiens, UniProt P00533); assay: Biochemical EGFR kinase inhibition assay (Lance Ultra TR-FRET), wildtype
Outline: as §1

[1] = ATP at Km, read-out: IC50 Del19/T790M/C797S (nM), Km ATP
[2] = IC50 Del19/T790M/C797S (nM), 100 μM ATP
[3] = ATP at Km, read-out: IC50 L858R/T790M/C797S (nM), Km ATP
[4] = IC50 L858R/T790M/C797S (nM), 100 μM ATP
[5] = ATP at Km, read-out: IC50 Del19/C797S (nM), Km ATP
[6] = IC50 Del19/C797S (nM), 100 μM ATP
[7] = ATP at Km, read-out: IC50 L858R/C797S (nM), Km ATP
[8] = IC50 L858R/C797S (nM), 100 μM ATP
[9] = ATP at Km, read-out: IC50 WT (nM), Km ATP

Sequence of EGFR L858R/T790M/C797S (P00533 25-1210 T790M/C797S/L858R): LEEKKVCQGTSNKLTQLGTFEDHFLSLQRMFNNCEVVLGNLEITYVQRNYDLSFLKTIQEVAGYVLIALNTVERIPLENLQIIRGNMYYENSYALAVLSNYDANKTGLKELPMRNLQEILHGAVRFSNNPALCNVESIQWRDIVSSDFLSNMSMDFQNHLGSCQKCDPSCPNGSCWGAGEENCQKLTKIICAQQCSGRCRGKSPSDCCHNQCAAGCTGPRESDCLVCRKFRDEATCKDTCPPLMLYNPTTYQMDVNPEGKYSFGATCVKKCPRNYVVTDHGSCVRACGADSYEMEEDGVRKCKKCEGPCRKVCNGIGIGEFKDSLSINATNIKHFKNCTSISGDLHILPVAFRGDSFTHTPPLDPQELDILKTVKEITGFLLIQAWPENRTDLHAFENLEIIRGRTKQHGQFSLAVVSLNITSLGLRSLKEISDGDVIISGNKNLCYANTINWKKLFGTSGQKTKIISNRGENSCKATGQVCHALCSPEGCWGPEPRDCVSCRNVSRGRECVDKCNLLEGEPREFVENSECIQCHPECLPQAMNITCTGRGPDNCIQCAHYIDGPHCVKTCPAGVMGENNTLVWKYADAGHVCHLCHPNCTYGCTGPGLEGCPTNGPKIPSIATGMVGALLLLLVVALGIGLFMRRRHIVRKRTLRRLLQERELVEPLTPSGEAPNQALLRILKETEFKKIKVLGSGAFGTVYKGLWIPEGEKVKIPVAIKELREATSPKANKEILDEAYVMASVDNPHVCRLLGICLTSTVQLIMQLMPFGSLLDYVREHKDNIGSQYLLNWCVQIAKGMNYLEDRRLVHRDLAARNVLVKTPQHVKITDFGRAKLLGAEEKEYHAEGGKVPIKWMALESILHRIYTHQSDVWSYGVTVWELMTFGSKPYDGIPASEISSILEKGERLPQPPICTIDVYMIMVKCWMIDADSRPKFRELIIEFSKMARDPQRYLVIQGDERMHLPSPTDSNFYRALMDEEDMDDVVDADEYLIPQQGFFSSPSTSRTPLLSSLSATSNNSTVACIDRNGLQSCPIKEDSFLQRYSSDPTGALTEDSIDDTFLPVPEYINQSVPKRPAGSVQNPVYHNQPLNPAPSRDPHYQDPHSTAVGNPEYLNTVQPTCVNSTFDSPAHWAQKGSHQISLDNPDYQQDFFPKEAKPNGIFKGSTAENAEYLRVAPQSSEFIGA
Sequence of EGFR Del19/T790M/C797S (P00533 with tags, fused parts or gaps DEL746-750/T790M/C797S): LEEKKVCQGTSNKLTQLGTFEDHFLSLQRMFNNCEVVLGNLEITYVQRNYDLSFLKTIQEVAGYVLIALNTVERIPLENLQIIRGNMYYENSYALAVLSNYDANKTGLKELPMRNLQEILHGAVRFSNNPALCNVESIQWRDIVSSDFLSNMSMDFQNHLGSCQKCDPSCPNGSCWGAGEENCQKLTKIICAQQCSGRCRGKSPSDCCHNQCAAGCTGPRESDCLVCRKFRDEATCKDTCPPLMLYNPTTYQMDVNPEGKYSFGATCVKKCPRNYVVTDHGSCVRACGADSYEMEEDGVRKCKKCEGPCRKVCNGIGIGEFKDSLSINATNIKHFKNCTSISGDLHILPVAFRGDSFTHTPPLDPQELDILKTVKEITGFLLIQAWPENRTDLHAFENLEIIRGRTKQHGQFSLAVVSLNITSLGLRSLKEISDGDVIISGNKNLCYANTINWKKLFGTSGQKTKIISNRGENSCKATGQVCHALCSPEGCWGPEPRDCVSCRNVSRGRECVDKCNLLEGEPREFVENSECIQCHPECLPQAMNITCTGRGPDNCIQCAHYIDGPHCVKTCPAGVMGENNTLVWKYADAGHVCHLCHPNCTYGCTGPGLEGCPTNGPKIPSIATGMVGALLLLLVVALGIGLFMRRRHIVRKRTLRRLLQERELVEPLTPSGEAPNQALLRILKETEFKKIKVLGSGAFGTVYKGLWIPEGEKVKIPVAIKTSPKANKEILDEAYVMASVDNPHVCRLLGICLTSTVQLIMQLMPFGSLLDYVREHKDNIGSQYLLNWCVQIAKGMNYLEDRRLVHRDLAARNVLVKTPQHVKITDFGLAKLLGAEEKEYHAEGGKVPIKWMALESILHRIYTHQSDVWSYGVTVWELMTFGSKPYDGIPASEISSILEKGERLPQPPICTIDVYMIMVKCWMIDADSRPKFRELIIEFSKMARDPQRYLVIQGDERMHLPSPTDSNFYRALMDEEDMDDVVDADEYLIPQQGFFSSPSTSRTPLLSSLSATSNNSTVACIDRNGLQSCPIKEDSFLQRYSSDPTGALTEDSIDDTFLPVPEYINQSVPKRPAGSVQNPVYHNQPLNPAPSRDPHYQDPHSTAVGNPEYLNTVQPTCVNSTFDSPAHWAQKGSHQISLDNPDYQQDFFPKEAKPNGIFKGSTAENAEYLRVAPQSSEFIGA
Sequence of EGFR wildtype (WT) (P00533 25-1210): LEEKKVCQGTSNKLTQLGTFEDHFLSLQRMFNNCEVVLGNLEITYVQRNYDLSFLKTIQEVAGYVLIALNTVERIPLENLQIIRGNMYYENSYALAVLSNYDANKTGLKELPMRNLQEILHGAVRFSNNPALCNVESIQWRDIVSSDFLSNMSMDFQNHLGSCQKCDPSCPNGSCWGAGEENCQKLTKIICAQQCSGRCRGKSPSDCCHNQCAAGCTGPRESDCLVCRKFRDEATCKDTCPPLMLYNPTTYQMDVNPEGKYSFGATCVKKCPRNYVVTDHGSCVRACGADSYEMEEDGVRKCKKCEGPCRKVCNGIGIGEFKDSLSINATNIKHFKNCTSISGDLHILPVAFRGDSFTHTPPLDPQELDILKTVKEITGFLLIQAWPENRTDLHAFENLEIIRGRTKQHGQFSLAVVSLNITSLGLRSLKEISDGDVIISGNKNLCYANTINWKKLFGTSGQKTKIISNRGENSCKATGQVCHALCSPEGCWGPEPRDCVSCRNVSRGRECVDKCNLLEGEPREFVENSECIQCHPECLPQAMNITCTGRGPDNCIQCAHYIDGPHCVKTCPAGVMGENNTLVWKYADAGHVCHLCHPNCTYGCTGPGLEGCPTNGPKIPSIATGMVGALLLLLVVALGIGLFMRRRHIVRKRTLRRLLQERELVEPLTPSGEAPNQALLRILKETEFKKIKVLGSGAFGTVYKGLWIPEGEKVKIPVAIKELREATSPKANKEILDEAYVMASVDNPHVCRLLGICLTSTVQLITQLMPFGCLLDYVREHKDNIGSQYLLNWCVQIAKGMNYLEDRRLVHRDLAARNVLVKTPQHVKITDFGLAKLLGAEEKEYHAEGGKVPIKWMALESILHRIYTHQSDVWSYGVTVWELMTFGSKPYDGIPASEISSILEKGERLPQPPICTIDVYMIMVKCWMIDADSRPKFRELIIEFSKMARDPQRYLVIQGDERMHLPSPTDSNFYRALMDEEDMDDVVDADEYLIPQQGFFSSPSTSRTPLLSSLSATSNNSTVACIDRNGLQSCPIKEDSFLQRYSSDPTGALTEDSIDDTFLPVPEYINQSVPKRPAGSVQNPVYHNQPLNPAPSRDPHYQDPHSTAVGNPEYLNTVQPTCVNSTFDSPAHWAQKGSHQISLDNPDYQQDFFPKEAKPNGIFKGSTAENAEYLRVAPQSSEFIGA
Sequence of EGFR L858R/C797S (P00533 25-1210 C797S/L858R): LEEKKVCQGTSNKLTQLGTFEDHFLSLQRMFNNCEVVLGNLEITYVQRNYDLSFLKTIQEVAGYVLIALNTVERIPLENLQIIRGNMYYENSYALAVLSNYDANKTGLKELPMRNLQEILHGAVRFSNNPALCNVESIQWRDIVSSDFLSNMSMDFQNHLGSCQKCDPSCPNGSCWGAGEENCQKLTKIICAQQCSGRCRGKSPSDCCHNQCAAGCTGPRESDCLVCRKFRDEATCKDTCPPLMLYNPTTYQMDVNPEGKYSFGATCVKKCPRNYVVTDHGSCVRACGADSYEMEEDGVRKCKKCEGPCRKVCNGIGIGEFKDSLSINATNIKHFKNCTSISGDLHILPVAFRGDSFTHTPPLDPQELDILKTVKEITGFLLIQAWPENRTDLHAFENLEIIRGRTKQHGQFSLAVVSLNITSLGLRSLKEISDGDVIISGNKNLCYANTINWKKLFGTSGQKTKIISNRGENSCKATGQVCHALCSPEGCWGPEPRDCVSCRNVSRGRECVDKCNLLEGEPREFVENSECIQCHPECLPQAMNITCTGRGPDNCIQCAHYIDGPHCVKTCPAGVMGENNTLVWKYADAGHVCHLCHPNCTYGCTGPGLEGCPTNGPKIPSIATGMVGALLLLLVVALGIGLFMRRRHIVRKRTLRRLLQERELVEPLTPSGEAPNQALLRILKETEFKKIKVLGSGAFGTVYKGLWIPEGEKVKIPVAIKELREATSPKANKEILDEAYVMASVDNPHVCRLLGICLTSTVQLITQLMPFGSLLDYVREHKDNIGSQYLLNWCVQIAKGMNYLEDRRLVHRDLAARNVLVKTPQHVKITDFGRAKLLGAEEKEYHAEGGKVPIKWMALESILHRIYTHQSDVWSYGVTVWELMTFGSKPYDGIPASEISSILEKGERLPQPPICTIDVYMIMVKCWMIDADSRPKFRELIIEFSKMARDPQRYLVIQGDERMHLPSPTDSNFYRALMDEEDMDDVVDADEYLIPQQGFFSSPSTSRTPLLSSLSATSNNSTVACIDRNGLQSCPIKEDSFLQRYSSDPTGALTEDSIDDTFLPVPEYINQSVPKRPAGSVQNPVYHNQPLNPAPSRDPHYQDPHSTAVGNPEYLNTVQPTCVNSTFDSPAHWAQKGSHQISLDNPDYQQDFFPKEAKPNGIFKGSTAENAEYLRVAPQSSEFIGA

IC50 (EGFR Del19/T790M/C797S; [1]) | IC50 (EGFR Del19/T790M/C797S; [2]) | IC50 (EGFR L858R/T790M/C797S; [3]) | IC50 (EGFR L858R/T790M/C797S; [4]) | IC50 (EGFR Del19/C797S; [5]) | IC50 (EGFR Del19/C797S; [6]) | IC50 (EGFR L858R/C797S; [7]) | IC50 (EGFR L858R/C797S; [8]) | IC50 (EGFR wildtype (WT); [9]) | IC50 (EGFR wildtype (WT); IC50 WT (nM), 100 μM ATP) | SMILES
1.8 nM | 5.1 nM | 1 nM | 6.7 nM | 3.3 nM | 4.6 nM | 8.9 nM | 71.5 nM | 19.7 nM | > 10000 nM | O=S(=O)(C1CC1)n1cc(-c2nccc(Nc3cc(N[C@H]4CC[C@@H](O)CC4)c(C#Cc4ccc(CN5CCOCC5)s4)cn3)n2)cn1 [Example 190, (1s,4s)-4-((2-((2-(1-(Cyclopropylsulfonyl)-1H-pyrazol-4-yl)pyrimidin-4-yl)amino)-5-((5-(morpholinomethyl)thiophen-2-yl)ethynyl)pyridin-4-yl)amino)cyclohexan-1-ol]
0.5 nM | 0.5 nM | 0.2 nM | 0.7 nM | 2.2 nM | 3.3 nM | 3.4 nM | 169 nM | 26.1 nM | > 10000 nM | O=S(=O)(C1CC1)n1cc(-c2nccc(Nc3cc(N[C@H]4CC[C@@H](O)CC4)c(C#Cc4ncc(CN5CCOCC5)cn4)cn3)n2)cn1 [Example 194, (1s,4s)-4-((2-((2-(1-(Cyclopropylsulfonyl)-1H-pyrazol-4-yl)pyrimidin-4-yl)amino)-5-((5-(morpholinomethyl)pyrimidin-2-yl)ethynyl)pyridin-4-yl)amino)cyclohexan-1-ol]
0.3 nM | 0.4 nM | 0.1 nM | 0.4 nM | 2.4 nM | 2.7 nM | 2.3 nM | 14.8 nM | 19.6 nM | 8540 nM | CC1(CO)CCN(c2cc(Nc3ccnc(-c4cnn(S(=O)(=O)C5CC5)c4)n3)ncc2C#CC2(O)CCOCC2)CC1 [Example 195, 4-((6-((2-(1-(cyclopropylsulfonyl)-1H-pyrazol-4-yl)pyrimidin-4-yl)amino)-4-(4-(hydroxymethyl)-4-methylpiperidin-1-yl)pyridin-3-yl)ethynyl)tetrahydro-2H-pyran-4-ol]
0.7 nM | 0.6 nM | 0.3 nM | 1.1 nM | 6 nM | 9.8 nM | 6.8 nM | 50.6 nM | 68 nM | > 10000 nM | O=S(=O)(C1CC1)n1cc(-c2nccc(Nc3cc(N[C@H]4CC[C@@H](O)CC4)c(C#CC4(O)CCOCC4)cn3)n2)cn1 [Example 196, 4-((6-((2-(1-(Cyclopropylsulfonyl)-1H-pyrazol-4-yl)pyrimidin-4-yl)amino)-4-(((1 s, 4s)-4-hydroxycyclohexyl)amino)pyridin-3-yl)ethynyl)tetrahydro-2H-pyran-4-ol]
0.3 nM | 0.3 nM | 0.1 nM | 0.3 nM | 0.6 nM | 0.8 nM | 0.8 nM | 8.9 nM | 5.6 nM | 1560 nM | CC1(CO)CCN(c2cc(Nc3ccnc(-c4cnn(S(=O)(=O)C5CC5)c4)n3)ncc2C#CC2CCOC2)CC1 (centres unmarked) [Example 197, (1-(2-((2-(1-(Cyclopropylsulfonyl)-1H-pyrazol-4-yl)pyrimidin-4-yl)amino)-5-((tetrahydrofuran-3-yl)ethynyl)pyridin-4-yl)-4-methylpiperidin-4-yl)methanol]

The remaining lines, values behind:

SMILES | IC50 (EGFR Del19/T790M/C797S; [1]) | IC50 (EGFR Del19/T790M/C797S; [2]) | IC50 (EGFR L858R/T790M/C797S; [3]) | IC50 (EGFR L858R/T790M/C797S; [4]) | IC50 (EGFR Del19/C797S; [5]) | IC50 (EGFR Del19/C797S; [6]) | IC50 (EGFR L858R/C797S; [7]) | IC50 (EGFR L858R/C797S; [8]) | IC50 (EGFR wildtype (WT); [9]) | IC50 (EGFR wildtype (WT); IC50 WT (nM), 100 μM ATP)
CC1(CO)CCN(c2cc(Nc3ccnc(-c4cnn(S(=O)(=O)C5CC5)c4)n3)ncc2C#Cc2ccc(CN3CCOCC3)cn2)CC1 [Example 185, (1-(2-((2-(1-(Cyclopropylsulfonyl)-1H-pyrazol-4-yl)pyrimidin-4-yl)amino)-5-((5-(morpholinomethyl)pyridin-2-yl)ethynyl)pyridin-4-yl)-4-methylpiperidin-4-yl)methanol] | 0.4 nM | 1.2 nM | 0.2 nM | 1.1 nM | 0.5 nM | 0.8 nM | 0.9 nM | 6.8 nM | 1.7 nM | > 10000 nM
CC1(CO)CCN(c2cc(Nc3ccnc(-c4cnn(S(=O)(=O)C5CC5)c4)n3)ncc2C#Cc2ccc(CN3CCOCC3)nc2)CC1 [Example 187, (1-(2-((2-(1-(Cyclopropylsulfonyl)-1H-pyrazol-4-yl)pyrimidin-4-yl)amino)-5-((6-(morpholinomethyl)pyridin-3-yl)ethynyl)pyridin-4-yl)-4-methylpiperidin-4-yl)methanol] | 0.9 nM | 0.5 nM | 1.2 nM | 0.8 nM | 1.6 nM | 0.9 nM | 2 nM | 8.2 nM | 3.9 nM | 932 nM
CC1(CO)CCN(c2cc(Nc3ccnc(-c4cnn(S(=O)(=O)C5CC5)c4)n3)ncc2C#Cc2csc(CN3CCOCC3)n2)CC1 [Example 189, (1-(2-((2-(1-(Cyclopropylsulfonyl)-1H-pyrazol-4-yl)pyrimidin-4-yl)amino)-5-((2-(morpholinomethyl)thiazol-4-yl)ethynyl)pyridin-4-yl)-4-methylpiperidin-4-yl)methanol] | 0.7 nM | 0.7 nM | 0.6 nM | 0.9 nM | 2.1 nM | 1.8 nM | 2.8 nM | 40.4 nM | 8.4 nM | > 10000 nM
CC1(CO)CCN(c2cc(Nc3ccnc(-c4cnn(S(=O)(=O)C5CC5)c4)n3)ncc2C#Cc2ccc(CN3CCOCC3)s2)CC1 [Example 191, (1-(2-((2-(1-(Cyclopropylsulfonyl)-1H-pyrazol-4-yl)pyrimidin-4-yl)amino)-5-((5-(morpholinomethyl)thiophen-2-yl)ethynyl)pyridin-4-yl)-4-methylpiperidin-4-yl)methanol] | 3 nM | 7 nM | 1.5 nM | 9.8 nM | 2.2 nM | 4.3 nM | 3.2 nM | 21.7 nM | 8.1 nM | 3580 nM
CC1(CO)CCN(c2cc(Nc3ccnc(-c4cnn(S(=O)(=O)C5CC5)c4)n3)ncc2C#Cc2cnc(CN3CCOCC3)s2)CC1 [Example 192, (1-(2-((2-(1-(Cyclopropylsulfonyl)-1H-pyrazol-4-yl)pyrimidin-4-yl)amino)-5-((2-(morpholinomethyl)thiazol-5-yl)ethynyl)pyridin-4-yl)-4-methylpiperidin-4-yl)methanol] | 1 nM | 1.5 nM | 0.4 nM | 1.3 nM | 1.1 nM | 1.8 nM | 2.1 nM | 4.5 nM | 6.1 nM | 1480 nM
CC1(CO)CCN(c2cc(Nc3ccnc(-c4cnn(S(=O)(=O)C5CC5)c4)n3)ncc2C#Cc2ncc(CN3CCOCC3)cn2)CC1 [Example 193, (1-(2-((2-(1-(Cyclopropylsulfonyl)-1H-pyrazol-4-yl)pyrimidin-4-yl)amino)-5-((5-(morpholinomethyl)pyrimidin-2-yl)ethynyl)pyridin-4-yl)-4-methylpiperidin-4-yl)methanol] | 0.5 nM | 0.6 nM | 0.2 nM | 0.5 nM | 0.4 nM | 0.7 nM | 0.9 nM | 6.6 nM | 2.2 nM | 1270 nM
